# Calls of active or inactive are those of the source. No cut-off for these calls is given here.
# Tests used:
# Escherichia coli [1] = assay: Induction of Escherichia coli pUC19 DNA photocleavage assessed as conversion of supercoiled DNA to linear and nicked form of DNA at 10 uM treated for 60 mins followed by irradiation at 623 nm for 60 mins by agarose gel electrophoresis (reference value: 10%)
# DNA [2] = assay: Binding affinity to calf thymus DNA at 10 uM using sequential DNA addition followed by 15 mins incubation under dark condition by UV-visible spectroscopy; assay type: nucleic-acid assay; conditions: Bos taurus
# Escherichia coli [3] = assay: Induction of Escherichia coli pUC19 DNA photocleavage assessed as conversion of supercoiled DNA to linear and nicked form of DNA after 60 mins followed by irradiation at 575 nm for 60 mins by agarose gel electrophoresis
# Escherichia coli [4] = assay: Induction of Escherichia coli pUC19 DNA photocleavage assessed as conversion of supercoiled DNA to linear and nicked form of DNA at 10 uM treated for 60 mins followed by irradiation at 588 nm for 60 mins by agarose gel electrophoresis (reference value: 15%)
# Escherichia coli [5] = assay: Induction of Escherichia coli pUC19 DNA photocleavage assessed as conversion of supercoiled DNA to linear and nicked form of DNA at 10 uM treated for 60 mins followed by irradiation at 575 nm for 60 mins by agarose gel electrophoresis (reference value: 6 +/- 2%)
# Escherichia coli [6] = assay: Induction of Escherichia coli pUC19 DNA photocleavage at 10 uM treated for 60 mins followed by irradiation at 575 nm for 60 mins by agarose gel electrophoresis in presence of sodium azide
# DNA [7] = assay: Binding affinity to calf thymus DNA at 10 uM incubated for 60 mins under dark condition by fluorescence emission spectra analysis; assay type: nucleic-acid assay; conditions: Bos taurus
# DNA [8] = assay: Binding affinity to calf thymus DNA at 10 uM after 60 mins by UV-visible absorption spectra analysis; assay type: nucleic-acid assay; conditions: Bos taurus
# Escherichia coli [9] = assay: Induction of Escherichia coli pUC19 DNA photocleavage at 10 uM treated for 60 mins followed by irradiation at 575 nm for 60 mins by agarose gel electrophoresis in presence of sodium benzoate
# Escherichia coli [10] = assay: Induction of Escherichia coli pUC19 DNA cleavage assessed as conversion of supercoiled DNA to linear and nicked form of DNA at 10 uM after 60 mins by agarose gel electrophoresis
# Escherichia coli [11] = assay: Induction of Escherichia coli pUC19 DNA photocleavage assessed as conversion of supercoiled DNA to linear and nicked form of DNA at 10 uM treated for 60 mins followed by irradiation at 700 nm for 60 mins by agarose gel electrophoresis (reference value: 3%)
SMILES,Activity (Escherichia coli [1]) [%],Activity (DNA [2]),Activity (Escherichia coli [3]),Activity (Escherichia coli [4]) [%],Activity (Escherichia coli [5]) [%],Activity (Escherichia coli [6]),Activity (DNA [7]),Activity (DNA [8]),Activity (Escherichia coli [9]),Activity (Escherichia coli [10]) [%],Activity (Escherichia coli [11]) [%]
CC1(C)C(/C=C/C=C/C=C2/N(CCC[N+](C)(C)C)c3ccc4ccccc4c3C2(C)C)=[N+](CCC[N+](C)(C)C)c2ccc3ccccc3c21,41,Active,–,20,47,inactive,Active,Active,inactive,1,34
CN1/C(=C/C=C(Br)/C=C/C2=[N+](C)c3ccc4ccccc4c3C2(C)C)C(C)(C)c2c1ccc1ccccc21,46,Active,Dose-dependent effect,55,86,inactive,Active,Active,inactive,3,49
CN1/C(=C/C=C/C=C/C2=[N+](C)c3ccc4ccccc4c3C2(C)C)C(C)(C)c2c1ccc1ccccc21,29,Active,–,25,59,inactive,Active,Active,inactive,2,18

# The next lines start with the values.
Activity (Escherichia coli [1]) [%],Activity (DNA [2]),Activity (Escherichia coli [3]),Activity (Escherichia coli [4]) [%],Activity (Escherichia coli [5]) [%],Activity (Escherichia coli [6]),Activity (DNA [7]),Activity (DNA [8]),Activity (Escherichia coli [9]),Activity (Escherichia coli [10]) [%],Activity (Escherichia coli [11]) [%],SMILES
48,Active,Dose-dependent effect,55,91,inactive,Active,Active,inactive,5,67,CC1(C)C(/C=C/C(Cl)=C/C=C2/N(CCC[N+](C)(C)C)c3ccc4ccccc4c3C2(C)C)=[N+](CCC[N+](C)(C)C)c2ccc3ccccc3c21
42,Active,Dose-dependent effect,46,83,inactive,Active,Active,inactive,2,33,CN1/C(=C/C=C(Cl)/C=C/C2=[N+](C)c3ccc4ccccc4c3C2(C)C)C(C)(C)c2c1ccc1ccccc21
8,–,–,13,13,–,Active,–,–,4,2,CC1(C)C(/C=C/C(Cl)=C/C=C2/N(CCCc3ccccc3)c3ccc4ccccc4c3C2(C)C)=[N+](CCCc2ccccc2)c2ccc3ccccc3c21
56,Active,Dose-dependent effect,47,78,inactive,Active,Active,inactive,7,59,CC1(C)C(/C=C/C(Br)=C/C=C2/N(CCC[N+](C)(C)C)c3ccc4ccccc4c3C2(C)C)=[N+](CCC[N+](C)(C)C)c2ccc3ccccc3c21
